Laboratory results taken from US10653651B2, “Kit for treating cancer with low molecular weight components of aurin tricarboxylic acid complex” (Aurin Biotech Inc., priority 2014, dated 2020).

Legend:
Format in all cases: cell-based, human
VEGF [1] = assay: Western blot of VEGF expression and release by U251 cells; conditions: 10 μM, 1 day; for expression of vascular endothelial growth factor (VEGF) in U251 cells: cell extract; for release of VEGF into the extracellular milieu by U251 cells: supernatant
Method: (§1) Experiment 2 was designed to determine the effect of ATA, AQA, and AHA on the expression and release of Factor H and VEGF by U251 cells. Cells were grown in DMEM for 24 h at 37° C., after which ATA, AQA, or AHA was added to the medium at a final concentration of 10 μM and incubation carried out for a further 24 h. The medium was drawn off, and the cells washed with PBS. Lysis buffer was then added to the cells. Forty microliters of the cell lysate, or the supernatant media, were loaded onto 12% polyacrylamide gels and separated under non-reducing conditions (70 V, 3-6 h). Following SDS-PAGE, proteins were transferred to a PVDF membrane (Bio-RadTM, CA) at 30 mA for 2 h. The membranes were blocked with 5% milk in PBS-T (80 mM Na2HPO4, 20 mM NaH2PO4, 100 mM NaCl, 0.1% Tween 20, pH 7.4) for 1 h, and incubated overnight at 4° C. with primary antibodies for Factor H (CytotechTM, goat 1/1000) and for VEGF (MilliporeTM, rabbit 1/2000). The membranes were then washed 3 times with PBST. They were then treated with an appropriate horseradish peroxidase (HRP)-conjugated secondary antibody for 3 h at room temperature. The secondary antibodies were anti-rabbit IgG (P0448, DAKOTM, Mississauga, Ontario, CA, 1/2,000) and anti-goat IgG (A[…], MilliporeTM, Billerica, Ma, 1/3,000). The bands were visualized with an enhanced chemiluminescence system and exposure to photographic film (Hyperfilm ECLTM, AmershamTM Pharmacia Biotech, Little Chalfont, UK). For reprobing of membranes with an alternative antibody, the membranes were treated with 10 mL of stripping buffer (3 mL of 1 M Tris-HCl pH 6.7, 10 mL of 10% SDS, 347 μL of 14 M mercaptoethanol, and 36.5 mL deionized water) at 60° C. for 1 h. The membrane was then placed on a shaking incubator for 30 min to clear it of all bound antibodies. The stripped membrane was then treated with a different primary antibody as previously described.

Factor H [2] = assay: Western blot of Factor H expression in U251 cells; conditions: 10 μM, 1 day, cell extract
Method: as §1, with “The bands were visualized with an enhanced chemiluminescence system and exposure to photographic film (Hyperfilm ECLTM, AmershamTM Pharmacia Biotech, Little Chalfont, UK). For reprobing of membranes with an alternative antibody, the membranes were treated with 10 mL of stripping buffer (3 mL of 1 M Tris-HCl pH 6.7, 10 mL of 10% SDS, 347 μL of 14 M mercaptoethanol, and 36.5 mL deionized water) at 60° C. for 1 h. The membrane was then placed on a shaking incubator for 30 min to clear it of all bound antibodies. The stripped membrane was then treated with a different primary antibody as previously described.” left out

VEGF [3] = assay: Western blot of VEGF expression and release by A549 cells; conditions: 10 μM, 1 day; for expression of vascular endothelial growth factor (VEGF) in A549 cells: cell extract; for release of VEGF into the extracellular milieu by A549 cells: supernatant
Method: (§2) Experiment 2 was designed to determine the effect of ATA, AQA, and AHA on the expression and release of Factor H and VEGF by U251 cells. Cells were grown in DMEM for 24 h at 37° C., after which ATA, AQA, or AHA was added to the medium at a final concentration of 10 μM and incubation carried out for a further 24 h. The medium was drawn off, and the cells washed with PBS. Lysis buffer was then added to the cells. Forty microliters of the cell lysate, or the supernatant media, were loaded onto 12% polyacrylamide gels and separated under non-reducing conditions (70 V, 3-6 h). Following SDS-PAGE, proteins were transferred to a PVDF membrane (Bio-Rad™, CA) at 30 mA for 2 h. The membranes were blocked with 5% milk in PBS-T (80 mM Na2HPO4, 20 mM NaH2PO4, 100 mM NaCl, 0.1% Tween 20, pH 7.4) for 1 h, and incubated overnight at 4° C. with primary antibodies for Factor H (Cytotech™, goat 1/1000) and for VEGF (Millipore™, rabbit 1/2000). The membranes were then washed 3 times with PBST. They were then treated with an appropriate horseradish peroxidase (HRP)-conjugated secondary antibody for 3 h at room temperature. The secondary antibodies were anti-rabbit IgG (P0448, DAKO™, Mississauga, Ontario, CA, 1/2,000) and anti-goat IgG (AP106P, Millipore™, Billerica, Ma, 1/3,000). The bands were visualized with an enhanced chemiluminescence system and exposure to photographic film (Hyperfilm ECL™, Amersham™ Pharmacia Biotech, Little Chalfont, UK). For reprobing of membranes with an alternative antibody, the membranes were treated with 10 mL of stripping buffer (3 mL of 1 M Tris-HCl pH 6.7, 10 mL of 10% SDS, 347 μL of 14 M mercaptoethanol, and 36.5 mL deionized water) at 60° C. for 1 h. The membrane was then placed on a shaking incubator for 30 min to clear it of all bound antibodies. The stripped membrane was then treated with a different primary antibody as previously described.
Experiment 6 was designed to determine the effect of ATA, AQA, and AHA on the expression and release of Factor H and VEGF by BxPC-3 cells.
Experiment 10 was designed to determine the effect of ATA, AQA, and AHA on the expression and release of Factor H and VEGF by A549 cells. The protocol was identical to that used in Experiment 6 except A549 cells were used.

Factor H [4] = assay: Western blot of Factor H expression in A549 cells; conditions: 10 μM, 1 day, cell extract
Method: as §2, with “The bands were visualized with an enhanced chemiluminescence system and exposure to photographic film (Hyperfilm ECL™, Amersham™ Pharmacia Biotech, Little Chalfont, UK). For reprobing of membranes with an alternative antibody, the membranes were treated with 10 mL of stripping buffer (3 mL of 1 M Tris-HCl pH 6.7, 10 mL of 10% SDS, 347 μL of 14 M mercaptoethanol, and 36.5 mL deionized water) at 60° C. for 1 h. The membrane was then placed on a shaking incubator for 30 min to clear it of all bound antibodies. The stripped membrane was then treated with a different primary antibody as previously described.” left out

A549 cells = assay: DNA laddering (apoptosis) in A549 cells; conditions: 10 μM, 1 day, agarose gel
Method: For determination of DNA laddering, which is indicative of DNA disintegration, cells were precipitated by centrifugation, washed, and lysed with […] Tris-HCl, 5 mM EDTA, and 3% Triton-X-100. The lysates were incubated at 37° C. for 1 h and then centrifuged at 12,000g for 10 min. They were treated with phenol/chloroform/isoamylalcohol (25:24:1) and chloroform/isoamylalcohol (24:1) twice each, and precipitated with 0.6 volume isopropyl alcohol and 0.1 volume 3 M sodium actate at −20° C. for 30 min. The precipitates were centrifuged at 12,000 g for 20 min, washed with 70% ethanol and dissolved with TE buffer containing 2 μg/mL bovine RNase. DNAs were electrophoresed in 10 μg/mL ethidium bromide containing 2% w/v agarose gel.
The protocol was identical to that used in Experiment 7 except A549 cells were used.

With aurin hexacarboxylic acid [AHA] the “expression of vascular endothelial growth factor (VEGF) in U251 cells” value (VEGF [1]) was “reducing expression”, the “release of VEGF into the extracellular milieu by U251 cells” value (VEGF [1]) was “reducing release” and the “expression of Factor H in U251 cells” value (Factor H [2]) was “reducing expression”. The “expression of vascular endothelial growth factor (VEGF) in A549 cells” value (VEGF [3]) was “reduced expression”, the “release of VEGF into the extracellular milieu by A549 cells” value (VEGF [3]) was “reducing release” and the “expression of Factor H in A549 cells” value (Factor H [4]) was “reduced expression”. For the same substance, the “DNA fragmentation (180 bp laddering) in A549 cells” value (A549 cells) was “induced DNA fragmentation”.

aurin quadracarboxylic acid [AQA] was tested, and the “expression of vascular endothelial growth factor (VEGF) in U251 cells” value (VEGF [1]) was “reducing expression”, the “release of VEGF into the extracellular milieu by U251 cells” value (VEGF [1]) was “reducing release” and the “expression of Factor H in U251 cells” value (Factor H [2]) was “reducing expression”. The “expression of vascular endothelial growth factor (VEGF) in A549 cells” value (VEGF [3]) was “reduced expression”, the “release of VEGF into the extracellular milieu by A549 cells” value (VEGF [3]) was “reducing release” and the “expression of Factor H in A549 cells” value (Factor H [4]) was “reduced expression”. The “DNA fragmentation (180 bp laddering) in A549 cells” value (A549 cells) was “induced DNA fragmentation”.
